The nature of this data set: Potentiometric titration of dispersion pKa of couplers (two-phase aqueous dispersion). The data set is classed as physicochemical. From the text:
Preferred two-equivalent magenta dye-forming couplers for the practice of this invention include those that have pKa values of less than 10.0 when dispersed together with a coupler solvent. Potentiometric titrations were used to measure pKa values for some of the preferred couplers of the invention as aqueous dispersions. In these two-phase mixtures, the term pKa denotes the aqueous buffer pH at which half of the coupler in the oil phase is ionized or ion paired. Table I lists dispersion pKa values measured with 0.50 M potassium counter ion.

The mark [1] stands for this setting: coupler solvent S2, coupler:solvent weight ratio 1:2, 0.50 M potassium.
Setting [2] is: coupler solvent C5, coupler:solvent weight ratio 1:1, 0.50 M potassium.
Where [3] appears, read: coupler solvent S1, coupler:solvent weight ratio 1:1, 0.50 M potassium.

As to `CCCCCCCCCCCCCCCC(=O)Nc1ccc(Cl)c(NC2=NN(c3c(Cl)c(Cl)c(Cl)c(Cl)c3Cl)C(=O)C2Sc2ccccc2NC(=O)OCc2ccccc2)c1` (stereo not drawn) [Coupler M7], the “pKa(0.5M K+)” value under setting [1] is given as 7.5. Consider `CCCCCCCCCCCCCC(=O)Nc1ccc(Cl)c(NC2=NN(c3c(Cl)cc(Cl)cc3Cl)C(=O)C2Sc2ccccc2NC(=O)C(CC)Oc2ccc(C(C)(C)CC)cc2C(C)(C)CC)c1` (stereo not drawn) [Coupler M3], for which the “pKa(0.5M K+)” value is on record as 8.2 under setting [2] and 7.9 under setting [3]. In the case of `CCCCCCCCCCCCNS(=O)(=O)c1ccc(NC2=NN(c3c(Cl)cc(Cl)cc3Cl)C(=O)C2Sc2cc(C(C)(C)CC(C)(C)C)ccc2OCCCC)c(Cl)c1` (stereo not drawn) [Coupler M1], the “pKa(0.5M K+)” value under setting [1] is 8.5. In the case of `CCCCCCCCCCCCNS(=O)(=O)c1ccc(NC2=NN(c3c(Cl)cc(Cl)cc3Cl)C(=O)C2Sc2ccccc2NC(=O)CCCCCCCCCCC)c(Cl)c1` (stereo not drawn) [Coupler M8], under setting [1], the “pKa(0.5M K+)” value stood at 7.9. Regarding `CCCCCCCCCCCCNS(=O)(=O)c1ccc(NC2=NN(c3c(Cl)cc(Cl)cc3Cl)C(=O)C2Sc2ccccc2NC(=O)C(CC)Oc2ccc(C(C)(C)CC)cc2C(C)(C)CC)c(Cl)c1` (stereo not drawn) [Coupler M4], the “pKa(0.5M K+)” value runs as follows: under setting [2], 8.0; under setting [3], 7.6. For `CCCCCCCCCCCCCCCCCCNS(=O)(=O)c1ccc(Cl)c(NC2=NN(c3c(Cl)cc(Cl)cc3Cl)C(=O)C2Sc2cc(C(C)C)ccc2C(C)C)c1` (stereo not drawn) [Coupler M20], the “pKa(0.5M K+)” value (coupler solvent C1, coupler:solvent weight ratio 1:2, 0.50 M potassium) is reported as 8.9 and the “pKa(0.5M K+)” value under setting [1] is recorded as 8.4.
